Measured values taken from article PMC7095208 (Nature, 2014).
pEC50: −log10 of the molar value. Read-outs that look alike come from different tables or passages of the source.

Assays:
[1] = test system: JUNV Romero; assay: organism not typed; assay type: cell-based, Junín virus; details: HeLa
[2] = in vivo; details: cynomolgus monkey, im
[3] = test system: EBOV Kikwit; assay: microbe, parasite or virus in culture; assay type: cell-based, Ebola virus; details: Zaire ebolavirus, HeLa
[4] = in vivo; details: Sprague-Dawley, rat
[5] = test system: human RNA or DNA
[6] = in vivo; details: mouse, iv
[7] = test system: MARV Ci67; assay: organism not typed; assay type: cell-based, Marburg virus; details: HeLa
[8] = test system: MARV-Musoke; details: guinea pig, in vivo
[9] = test system: human lymphocytes; details: 787 µM
[10] = test system: EBOV minigenome RNA replicon; assay type: cell-based, Ebola virus
[11] = test system: Marburg virus - Musoke; assay type: cell-based
[12] = test system: RVFV ZH5018; assay: microbe, parasite or virus in culture; assay type: cell-based; details: Rift Valley fever virus, HeLa
[13] = test system: SUDV Boniface; assay: microbe, parasite or virus in culture; assay type: cell-based; details: Sudan ebolavirus, HeLa
[14] = test system: MARV (Musoke variant)
[15] = test system: MARV-Angola; details: guinea pig, in vivo
[16] = in vitro; details: human
[17] = test system: MARV Musoke; assay: organism not typed; assay type: cell-based, Marburg virus; details: HeLa
[18] = in vitro; details: human, s9, half-life (t1/2)
[19] = in vitro; details: dog, pH 1
[20] = biological target: hERG ion channel (Homo sapiens, UniProt Q12809); assay: hERG ion channel current; assay type: biochemical; details: 30 µM; data not shown
[21] = test system: Rift Valley fever virus (ZH501); details: mouse, in vivo
[22] = test system: MARV Angola; assay: organism not typed; assay type: cell-based, Marburg virus; details: HeLa
[23] = test system: HeLa cells; details: human
[24] = rat, in vivo, im
[25] = biological target: HCV NS5B RNA polymerase (Hepatitis C virus genotype 1b, UniProt P26663); assay type: biochemical
[26] = test system: filoviruses; details: in vivo; cited from earlier work
[27] = test system: filoviruses; details: cited from earlier work

Sequence of HCV NS5B RNA polymerase (P26663 2420-2989 limits assumed): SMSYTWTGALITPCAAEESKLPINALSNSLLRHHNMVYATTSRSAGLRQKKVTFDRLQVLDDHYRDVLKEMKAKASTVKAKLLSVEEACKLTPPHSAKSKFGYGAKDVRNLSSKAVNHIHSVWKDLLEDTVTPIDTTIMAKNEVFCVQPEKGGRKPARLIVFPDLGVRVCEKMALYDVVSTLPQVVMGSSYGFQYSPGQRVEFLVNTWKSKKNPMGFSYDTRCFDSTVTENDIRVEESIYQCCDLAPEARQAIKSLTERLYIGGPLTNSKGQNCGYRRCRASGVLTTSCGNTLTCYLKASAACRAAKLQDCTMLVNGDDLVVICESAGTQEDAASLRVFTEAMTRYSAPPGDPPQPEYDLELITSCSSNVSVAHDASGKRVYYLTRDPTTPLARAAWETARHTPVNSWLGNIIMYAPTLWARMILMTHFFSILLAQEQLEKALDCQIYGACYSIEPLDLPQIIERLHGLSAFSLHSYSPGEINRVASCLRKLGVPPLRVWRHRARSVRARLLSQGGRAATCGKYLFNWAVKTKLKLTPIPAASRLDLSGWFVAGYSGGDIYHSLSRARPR
Sequence of hERG ion channel (Q12809 whole entry): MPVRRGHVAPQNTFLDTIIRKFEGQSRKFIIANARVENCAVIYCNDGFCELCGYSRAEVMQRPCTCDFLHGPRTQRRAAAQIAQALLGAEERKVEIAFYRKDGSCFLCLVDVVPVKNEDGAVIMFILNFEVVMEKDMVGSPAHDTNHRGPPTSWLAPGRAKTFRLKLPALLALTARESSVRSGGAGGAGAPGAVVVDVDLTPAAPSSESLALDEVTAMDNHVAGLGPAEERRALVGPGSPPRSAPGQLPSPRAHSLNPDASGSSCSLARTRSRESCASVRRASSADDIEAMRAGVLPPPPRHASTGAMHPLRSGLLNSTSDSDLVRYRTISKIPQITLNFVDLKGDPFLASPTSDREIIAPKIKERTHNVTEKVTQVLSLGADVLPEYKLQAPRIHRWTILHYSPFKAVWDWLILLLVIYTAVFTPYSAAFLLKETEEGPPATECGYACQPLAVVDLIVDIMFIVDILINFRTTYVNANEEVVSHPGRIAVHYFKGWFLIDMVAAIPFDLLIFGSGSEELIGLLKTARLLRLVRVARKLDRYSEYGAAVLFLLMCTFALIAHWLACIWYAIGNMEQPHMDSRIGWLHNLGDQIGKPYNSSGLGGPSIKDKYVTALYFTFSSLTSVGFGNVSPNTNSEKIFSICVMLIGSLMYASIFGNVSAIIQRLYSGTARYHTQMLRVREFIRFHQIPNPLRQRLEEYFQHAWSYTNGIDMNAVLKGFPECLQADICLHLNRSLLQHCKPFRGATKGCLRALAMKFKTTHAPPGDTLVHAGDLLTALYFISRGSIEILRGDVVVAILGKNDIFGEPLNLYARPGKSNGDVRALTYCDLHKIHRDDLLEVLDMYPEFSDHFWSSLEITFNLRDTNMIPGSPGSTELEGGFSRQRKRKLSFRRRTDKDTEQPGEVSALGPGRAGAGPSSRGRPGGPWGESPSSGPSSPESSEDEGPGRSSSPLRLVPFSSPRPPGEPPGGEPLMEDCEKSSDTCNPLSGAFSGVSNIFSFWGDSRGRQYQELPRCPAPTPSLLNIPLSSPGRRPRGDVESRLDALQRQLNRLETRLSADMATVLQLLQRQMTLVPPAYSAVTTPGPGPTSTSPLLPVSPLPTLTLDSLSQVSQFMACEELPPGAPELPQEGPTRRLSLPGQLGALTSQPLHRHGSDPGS

With `Nc1ncnc2c([C@@H]3N[C@H](CO)[C@@H](O)[C@H]3O)c[nH]c12` [BCX4430, (2S,3S,4R,5R)-2-(4-amino-5H-pyrrolo[3,2-d]pyrimidin-7-yl)-5-(hydroxymethyl)pyrrolidine-3,4-diol] the pEC50 [1] was 4.37, the EC90 [1] was > 100 µM and the half-life [2] was < 5 min. The pEC50 [3] was 4.93, the EC90 [3] was 25.4 µM and the half-life [4] was < 5 min. The “incorporation of BCX4430-MP into human RNA or DNA” value [5] was “no evidence of BCX4430-MP incorporation”, the half-life [6] was < 5 min and the pEC50 [7] was 5.17. For the same compound, the EC90 [7] was 16.1 µM, the post-exposure protection [8] was “significant post-exposure protection” and the chromosomal aberrations [9] was “no detectable chromosomal aberrations”. The “GFP expression in EBOV minigenome replicon assay” value [10] was “reduces expression of green fluorescent protein”, the “production of infectious MARV virus” value [11] was “no detectable infectious MARV virus” and the pEC50 [12] was 4.38. It also gave an EC90 [12] of 98 µM, a pEC50 [13] of 5.47 and an EC90 [13] of 10.3 µM. For the same compound, the animals surviving ([14]; cynomolgus monkey, in vivo) was 83%, the “haemorrhagic disease manifestations (PT, aPTT, serum AST, bilirubin) vs vehicle” value ([14]; cynomolgus monkey, in vivo) was “ameliorated” and the “serum MARV burden” value ([14]; cynomolgus monkey, in vivo) was “significantly and substantially reduced”. For the same compound, the tolerability ([14]; cynomolgus monkey, in vivo) was “well tolerated”, the animals surviving ([14]; n = 6) was “All animals” and the post-exposure protection [15] was “significant post-exposure protection”. For the same compound, the protection [15] was “protected”, the CC50 [16] was > 296 µM and the pEC50 [17] was 5.36. For the same compound, the EC90 [17] was 10.5 µM, the half-life [18] was > 54 min and the CC50 [19] was > 296 µM. For the same compound, the “inhibition of hERG ion channel current” value [20] was “did not inhibit”, the “protection against lethal Rift Valley fever virus challenge” value [21] was “protected” and the pEC50 [22] was 5.30. The EC90 [22] was 12.3 µM and the CC50 [23] was 242 µM.

For `Nc1ncnc2c([C@@H]3N[C@H](COP(=O)(O)OP(=O)(O)OP(=O)(O)O)[C@@H](O)[C@H]3O)c[nH]c12` [BCX4430-TP], the “half-life in the liver” value [24] was 372 min and the “RNA chain synthesis by HCV RNA polymerase” value [25] was “induces premature termination”.

In the case of `NC(=O)c1nc(F)c[nH]c1=O` [T-705, favipiravir], the “protection against filoviruses in rodents” value [26] is given as “high-degree of protection”.

For `Nc1nccc2c1ncn2C1C=C(CO)C(O)C1O` (stereo not shown) [c^3-Npc A, 3-deazaneplanocin A], the “protection against filoviruses in rodents” value [26] is listed as “high-degree of protection”.

In the case of `NC(=O)c1ncn([C@@H]2O[C@H](CO)[C@@H](O)[C@H]2O)n1` [ribavirin], the activity against filoviruses [27] is given as “not active”.
